Our source for the IC50 values is BindingDB's records for patent US11013745 (Shanghai Institute of Material Medica, Chinese Academy of …, 2021).

The test has as its target T1, Histone-binding protein RBBP4/Histone-lysine N-methyltransferase EZH2/Polycomb protein EED [40-441]/Polycomb protein SUZ12 (Homo sapiens, UniProt O75530+Q09028+Q15022+Q15910).
T1 construct: 40-441
Nature of the test: TR-FRET Assay. The protocol:
The TR-FRET method was used to measure the PRC2 enzyme activity. First, the enzyme was mixed with compounds at different concentrations and incubated for 30 min at room temperature. The biotin-labeled histone H3 peptide substrate and the cofactor S-adenosylmethionine (SAM) were added to initiate the enzymatic reaction. After reaction was performed at room temperature for 4 hour, Acceptor and Donor were added and incubated for half an hour. The multifunctional microplate reader EnVision (Perkin Elmer Inc.) was used to detect the fluorescence signal.
On the technique in general: Time-resolved FRET reads energy transfer from a long-lived donor to a nearby acceptor.

T1 sequence (Q15910 whole entry): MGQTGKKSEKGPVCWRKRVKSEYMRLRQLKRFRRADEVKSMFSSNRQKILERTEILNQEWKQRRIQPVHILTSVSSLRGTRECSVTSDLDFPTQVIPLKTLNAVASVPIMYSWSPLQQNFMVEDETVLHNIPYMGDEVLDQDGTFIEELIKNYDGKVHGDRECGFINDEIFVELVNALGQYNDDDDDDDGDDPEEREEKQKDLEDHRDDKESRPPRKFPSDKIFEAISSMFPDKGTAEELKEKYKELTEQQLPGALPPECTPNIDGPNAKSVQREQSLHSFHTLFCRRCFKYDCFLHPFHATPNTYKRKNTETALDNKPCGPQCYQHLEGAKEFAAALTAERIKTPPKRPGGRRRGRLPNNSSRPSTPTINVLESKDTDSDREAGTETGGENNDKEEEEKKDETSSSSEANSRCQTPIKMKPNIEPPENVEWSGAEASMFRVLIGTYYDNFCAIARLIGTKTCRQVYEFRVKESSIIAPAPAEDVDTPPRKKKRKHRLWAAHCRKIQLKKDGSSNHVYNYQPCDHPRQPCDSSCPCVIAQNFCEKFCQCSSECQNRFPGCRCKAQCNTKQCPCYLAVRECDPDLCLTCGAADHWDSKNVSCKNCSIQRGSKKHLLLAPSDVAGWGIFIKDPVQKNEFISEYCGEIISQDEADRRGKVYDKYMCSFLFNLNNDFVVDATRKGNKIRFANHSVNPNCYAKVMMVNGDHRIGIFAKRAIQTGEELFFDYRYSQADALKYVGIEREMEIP
T1 sequence (Q15022 whole entry): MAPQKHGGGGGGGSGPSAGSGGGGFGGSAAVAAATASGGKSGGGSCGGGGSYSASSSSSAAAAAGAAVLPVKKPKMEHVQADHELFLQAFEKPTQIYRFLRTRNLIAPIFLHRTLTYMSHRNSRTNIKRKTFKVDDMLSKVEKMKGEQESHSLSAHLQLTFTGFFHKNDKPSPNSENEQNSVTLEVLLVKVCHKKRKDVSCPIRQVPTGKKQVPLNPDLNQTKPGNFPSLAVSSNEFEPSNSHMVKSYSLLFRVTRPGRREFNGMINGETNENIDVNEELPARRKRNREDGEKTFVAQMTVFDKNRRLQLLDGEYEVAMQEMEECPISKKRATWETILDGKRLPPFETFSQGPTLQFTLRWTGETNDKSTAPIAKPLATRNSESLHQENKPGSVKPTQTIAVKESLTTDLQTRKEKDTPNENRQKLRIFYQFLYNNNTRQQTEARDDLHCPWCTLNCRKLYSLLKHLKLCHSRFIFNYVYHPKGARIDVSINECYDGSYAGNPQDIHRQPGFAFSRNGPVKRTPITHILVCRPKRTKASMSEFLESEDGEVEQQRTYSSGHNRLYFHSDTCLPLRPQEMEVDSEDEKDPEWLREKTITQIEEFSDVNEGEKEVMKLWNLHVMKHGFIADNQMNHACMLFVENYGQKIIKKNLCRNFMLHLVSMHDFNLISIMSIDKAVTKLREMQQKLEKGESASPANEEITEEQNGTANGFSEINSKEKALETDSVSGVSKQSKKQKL
T1 sequence (Q09028 whole entry): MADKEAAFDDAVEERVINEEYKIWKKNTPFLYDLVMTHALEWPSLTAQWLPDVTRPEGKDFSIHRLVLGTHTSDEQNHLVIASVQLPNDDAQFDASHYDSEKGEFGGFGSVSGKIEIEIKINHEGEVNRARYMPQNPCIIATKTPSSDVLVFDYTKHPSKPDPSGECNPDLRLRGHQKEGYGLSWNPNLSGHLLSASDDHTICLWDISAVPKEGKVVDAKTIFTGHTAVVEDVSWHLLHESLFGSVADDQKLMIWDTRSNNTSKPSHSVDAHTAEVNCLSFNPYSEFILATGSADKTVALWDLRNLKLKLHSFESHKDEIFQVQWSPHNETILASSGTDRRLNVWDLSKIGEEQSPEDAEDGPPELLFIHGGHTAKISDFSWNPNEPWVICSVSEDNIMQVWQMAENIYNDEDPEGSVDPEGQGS
T1 sequence (O75530 40-441): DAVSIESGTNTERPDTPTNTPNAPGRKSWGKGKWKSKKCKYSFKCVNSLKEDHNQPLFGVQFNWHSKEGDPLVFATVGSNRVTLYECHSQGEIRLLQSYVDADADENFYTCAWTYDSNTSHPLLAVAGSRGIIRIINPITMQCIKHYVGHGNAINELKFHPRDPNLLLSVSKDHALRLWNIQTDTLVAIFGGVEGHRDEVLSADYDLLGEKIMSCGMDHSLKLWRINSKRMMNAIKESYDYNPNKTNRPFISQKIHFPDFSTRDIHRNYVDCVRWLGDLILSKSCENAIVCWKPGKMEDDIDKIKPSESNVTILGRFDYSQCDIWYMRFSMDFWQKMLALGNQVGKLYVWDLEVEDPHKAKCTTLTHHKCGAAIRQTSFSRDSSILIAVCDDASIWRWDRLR

As usually defined, the IC50 is the concentration at which inhibition is half-maximal. Low readings indicate greater potency, high ones weaker potency. On to `O=C(Nc1ccc(Cl)cc1)N1CC=C(c2cnc(NCc3ccco3)n3cnnc23)CC1` [US11013745, Compound E-Y27], for which the IC50 was 92 nM.
`O=C(Nc1ccc(Cl)cc1)N1CC=C(c2cnc(NCc3c(F)ccc4c3CCO4)n3cnnc23)CC1` [US11013745, Compound E-Y38] displayed an IC50 of 58.5 nM.
